This note sets out measurements from ChEMBL document CHEMBL1909046, “DrugMatrix in vitro pharmacology data”.

Histamine H2 receptor, sequence (P25021 whole entry): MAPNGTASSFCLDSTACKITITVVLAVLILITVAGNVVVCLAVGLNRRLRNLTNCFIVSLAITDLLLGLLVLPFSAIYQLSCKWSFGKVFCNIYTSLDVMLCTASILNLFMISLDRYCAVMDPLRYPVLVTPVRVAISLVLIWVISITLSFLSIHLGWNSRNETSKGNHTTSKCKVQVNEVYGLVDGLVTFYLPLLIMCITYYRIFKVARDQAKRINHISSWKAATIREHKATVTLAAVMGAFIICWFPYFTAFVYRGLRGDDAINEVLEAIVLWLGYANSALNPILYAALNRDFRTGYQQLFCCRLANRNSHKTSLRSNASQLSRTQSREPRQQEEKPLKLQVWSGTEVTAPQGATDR
Sodium-dependent dopamine transporter, sequence (Q01959 whole entry): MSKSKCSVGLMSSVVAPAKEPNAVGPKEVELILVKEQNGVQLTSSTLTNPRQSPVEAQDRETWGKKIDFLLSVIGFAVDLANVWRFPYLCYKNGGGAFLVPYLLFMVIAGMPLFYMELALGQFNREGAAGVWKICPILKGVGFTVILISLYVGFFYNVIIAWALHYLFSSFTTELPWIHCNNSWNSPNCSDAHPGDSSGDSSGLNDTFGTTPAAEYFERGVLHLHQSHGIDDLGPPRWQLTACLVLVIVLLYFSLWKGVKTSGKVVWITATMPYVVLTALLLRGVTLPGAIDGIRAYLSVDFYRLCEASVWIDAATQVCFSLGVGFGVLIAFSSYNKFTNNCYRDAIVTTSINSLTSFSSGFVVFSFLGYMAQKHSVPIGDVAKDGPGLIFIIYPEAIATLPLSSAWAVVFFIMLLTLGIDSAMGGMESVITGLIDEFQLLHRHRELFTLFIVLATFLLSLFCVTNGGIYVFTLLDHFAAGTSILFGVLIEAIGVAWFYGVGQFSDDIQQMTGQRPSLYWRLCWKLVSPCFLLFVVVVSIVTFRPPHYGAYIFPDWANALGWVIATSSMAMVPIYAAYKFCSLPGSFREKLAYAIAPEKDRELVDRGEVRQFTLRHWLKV

Tested on in one series: not listed separately
The series is described as follows: DRUGMATRIX: GABAA, Flunitrazepam, Central radioligand binding (ligand: [3H] Flunitrazepam). In kind it is cell membranes, Rattus norvegicus, Wistar, Brain, Membrane. The note with it: Not Active = under 50% inhibition at 10 µM.
`CC[C@H](C)C(=O)O[C@H]1C[C@H](O)C=C2C=C[C@H](C)[C@H](CC[C@@H](O)C[C@@H](O)CC(=O)O)[C@H]21` [PRAVASTATIN]: the IC50 entry was “Not Active” and the Ki entry is recorded as “Not Active”.
`CC(C)(Sc1cc(C(C)(C)C)c(O)c(C(C)(C)C)c1)Sc1cc(C(C)(C)C)c(O)c(C(C)(C)C)c1` [PROBUCOL]: the IC50 result is on record as “Not Active” and the Ki result is “Not Active”.
For COBALT(II) ACETYLACETONATE, the IC50 result is “Not Active” and the Ki entry is “Not Active”.
For INSULIN HUMAN, the IC50 entry is “Not Active” and the Ki result is given as “Not Active”.
In the case of POLYVINYL ALCOHOL, the IC50 result is “Not Active” and the Ki entry was “Not Active”.

The target of a further series is Protein kinase C alpha type (Homo sapiens, UniProt P17252). The series is classed as cell-based. The note with it: sf9.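 Also: inhibition of PKCalpha kinase activity measured in an enzyme assay with histone as the phosphorylation substrate; in other assays of this panel Not Active means under 50% inhibition at 10 µM.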
As for `CC[C@H](C)C(=O)O[C@H]1C[C@H](O)C=C2C=C[C@H](C)[C@H](CC[C@@H](O)C[C@@H](O)CC(=O)O)[C@H]21` [PRAVASTATIN], the IC50 entry is “Not Active”.
On the same count and under the same terms, then `CC(C)(Sc1cc(C(C)(C)C)c(O)c(C(C)(C)C)c1)Sc1cc(C(C)(C)C)c(O)c(C(C)(C)C)c1` [PROBUCOL], with “Not Active”.
For COBALT(II) ACETYLACETONATE, the IC50 entry is on record as “Not Active” and the Ki entry is reported as “Not Active”.
Take INSULIN HUMAN: the IC50 entry is given as “Not Active” and the Ki result is recorded as “Not Active”.
Regarding POLYVINYL ALCOHOL, the IC50 entry is on record as “Not Active” and the Ki entry is “Not Active”.

The next series deals with Glycine receptor (Rattus norvegicus, UniProt P22771+P24524+P07727+P20781). In kind it is cell membranes, Wistar, Spinal cord, Membrane.
Conditions: not given
Regarding `CC[C@H](C)C(=O)O[C@H]1C[C@H](O)C=C2C=C[C@H](C)[C@H](CC[C@@H](O)C[C@@H](O)CC(=O)O)[C@H]21` [PRAVASTATIN], the IC50 entry is reported as “Not Active”.
On to `CC(C)(Sc1cc(C(C)(C)C)c(O)c(C(C)(C)C)c1)Sc1cc(C(C)(C)C)c(O)c(C(C)(C)C)c1` [PROBUCOL], for which the IC50 result is listed as “Not Active”.
With COBALT(II) ACETYLACETONATE, the IC50 entry was “Not Active” and the Ki entry is on record as “Not Active”.
For the compound INSULIN HUMAN, the IC50 entry was “Not Active” and the Ki entry is “Not Active”.
Take POLYVINYL ALCOHOL: the IC50 entry is “Not Active” and the Ki entry is reported as “Not Active”.

A further series has as its target T1, Cytochrome P450 2A6 (Homo sapiens, UniProt P11509). Also: in other assays of this panel Not Active means under 50% inhibition at 10 µM.
T1 sequence (P11509 whole entry): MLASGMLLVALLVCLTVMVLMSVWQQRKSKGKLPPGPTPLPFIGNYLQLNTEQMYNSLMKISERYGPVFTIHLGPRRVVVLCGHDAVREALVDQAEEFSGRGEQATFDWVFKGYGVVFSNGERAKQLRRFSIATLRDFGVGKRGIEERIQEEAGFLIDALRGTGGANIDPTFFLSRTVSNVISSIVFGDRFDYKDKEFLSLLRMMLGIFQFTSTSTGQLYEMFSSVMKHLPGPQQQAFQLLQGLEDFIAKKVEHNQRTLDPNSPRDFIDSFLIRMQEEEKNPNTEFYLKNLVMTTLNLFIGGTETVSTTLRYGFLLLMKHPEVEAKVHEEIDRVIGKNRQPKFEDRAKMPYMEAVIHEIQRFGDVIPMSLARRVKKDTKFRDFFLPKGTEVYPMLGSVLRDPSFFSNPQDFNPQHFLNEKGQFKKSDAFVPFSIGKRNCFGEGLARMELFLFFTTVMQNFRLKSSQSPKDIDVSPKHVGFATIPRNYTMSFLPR
The note with it: bti-tn-5b1-4.
`CC[C@H](C)C(=O)O[C@H]1C[C@H](O)C=C2C=C[C@H](C)[C@H](CC[C@@H](O)C[C@@H](O)CC(=O)O)[C@H]21` [PRAVASTATIN]: the IC50 entry was “Not Active” and the Ki result is given as “Not Active”.
`CC(C)(Sc1cc(C(C)(C)C)c(O)c(C(C)(C)C)c1)Sc1cc(C(C)(C)C)c(O)c(C(C)(C)C)c1` [PROBUCOL]: the IC50 result is reported as “Not Active” and the Ki result is on record as “Not Active”.
With COBALT(II) ACETYLACETONATE, the IC50 entry is reported as “Not Active” and the Ki result is “Not Active”.
In the case of INSULIN HUMAN, the IC50 result is “Not Active” and the Ki result was “Not Active”.
As to POLYVINYL ALCOHOL, the IC50 entry was “Not Active” and the Ki result is listed as “Not Active”.

The next series concerns the target Sodium-dependent dopamine transporter (Homo sapiens, UniProt Q01959). The series is described as follows: DRUGMATRIX: Dopamine Transporter radioligand binding (ligand: [125I] RTI-55). In kind it is cell membranes, CHO-K1, Membrane. The note with it: cho-k1; Not Active = under 50% inhibition at 10 µM.
Take `CC[C@H](C)C(=O)O[C@H]1C[C@H](O)C=C2C=C[C@H](C)[C@H](CC[C@@H](O)C[C@@H](O)CC(=O)O)[C@H]21` [PRAVASTATIN]: the IC50 result is reported as “Not Active”.
Same read-out and setting: then `CC(C)(Sc1cc(C(C)(C)C)c(O)c(C(C)(C)C)c1)Sc1cc(C(C)(C)C)c(O)c(C(C)(C)C)c1` [PROBUCOL], with “Not Active”.
Turning to COBALT(II) ACETYLACETONATE, the IC50 result is on record as “Not Active” and the Ki entry was “Not Active”.
Regarding INSULIN HUMAN, the IC50 result is listed as “Not Active” and the Ki result is recorded as “Not Active”.
On to POLYVINYL ALCOHOL, for which the IC50 entry is given as “Not Active” and the Ki entry is recorded as “Not Active”.

A further series has as its target Histamine H2 receptor (Homo sapiens, UniProt P25021). In kind it is cell membranes, CHO-K1, Membrane. The note with it: cho-k1. Also: in other assays of this panel Not Active means under 50% inhibition at 10 µM.
Regarding `CC[C@H](C)C(=O)O[C@H]1C[C@H](O)C=C2C=C[C@H](C)[C@H](CC[C@@H](O)C[C@@H](O)CC(=O)O)[C@H]21` [PRAVASTATIN], the IC50 entry is reported as “Not Active”.
Same read-out and setting: as for `CC(C)(Sc1cc(C(C)(C)C)c(O)c(C(C)(C)C)c1)Sc1cc(C(C)(C)C)c(O)c(C(C)(C)C)c1` [PROBUCOL], the entry is “Not Active”.
With COBALT(II) ACETYLACETONATE, the IC50 result is reported as “Not Active” and the Ki result was “Not Active”.
On to INSULIN HUMAN, for which the IC50 result is “Not Active” and the Ki entry is listed as “Not Active”.
With POLYVINYL ALCOHOL, the IC50 entry is given as “Not Active” and the Ki result is “Not Active”.

The target in another series is T2, Receptor-type tyrosine-protein phosphatase C (Homo sapiens, UniProt P08575).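 Also: inhibition of CD45 enzyme activity measured using DiFMUP as substrate; in other assays of this panel Not Active means under 50% inhibition at 10 µM.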
T2 sequence (P08575 whole entry): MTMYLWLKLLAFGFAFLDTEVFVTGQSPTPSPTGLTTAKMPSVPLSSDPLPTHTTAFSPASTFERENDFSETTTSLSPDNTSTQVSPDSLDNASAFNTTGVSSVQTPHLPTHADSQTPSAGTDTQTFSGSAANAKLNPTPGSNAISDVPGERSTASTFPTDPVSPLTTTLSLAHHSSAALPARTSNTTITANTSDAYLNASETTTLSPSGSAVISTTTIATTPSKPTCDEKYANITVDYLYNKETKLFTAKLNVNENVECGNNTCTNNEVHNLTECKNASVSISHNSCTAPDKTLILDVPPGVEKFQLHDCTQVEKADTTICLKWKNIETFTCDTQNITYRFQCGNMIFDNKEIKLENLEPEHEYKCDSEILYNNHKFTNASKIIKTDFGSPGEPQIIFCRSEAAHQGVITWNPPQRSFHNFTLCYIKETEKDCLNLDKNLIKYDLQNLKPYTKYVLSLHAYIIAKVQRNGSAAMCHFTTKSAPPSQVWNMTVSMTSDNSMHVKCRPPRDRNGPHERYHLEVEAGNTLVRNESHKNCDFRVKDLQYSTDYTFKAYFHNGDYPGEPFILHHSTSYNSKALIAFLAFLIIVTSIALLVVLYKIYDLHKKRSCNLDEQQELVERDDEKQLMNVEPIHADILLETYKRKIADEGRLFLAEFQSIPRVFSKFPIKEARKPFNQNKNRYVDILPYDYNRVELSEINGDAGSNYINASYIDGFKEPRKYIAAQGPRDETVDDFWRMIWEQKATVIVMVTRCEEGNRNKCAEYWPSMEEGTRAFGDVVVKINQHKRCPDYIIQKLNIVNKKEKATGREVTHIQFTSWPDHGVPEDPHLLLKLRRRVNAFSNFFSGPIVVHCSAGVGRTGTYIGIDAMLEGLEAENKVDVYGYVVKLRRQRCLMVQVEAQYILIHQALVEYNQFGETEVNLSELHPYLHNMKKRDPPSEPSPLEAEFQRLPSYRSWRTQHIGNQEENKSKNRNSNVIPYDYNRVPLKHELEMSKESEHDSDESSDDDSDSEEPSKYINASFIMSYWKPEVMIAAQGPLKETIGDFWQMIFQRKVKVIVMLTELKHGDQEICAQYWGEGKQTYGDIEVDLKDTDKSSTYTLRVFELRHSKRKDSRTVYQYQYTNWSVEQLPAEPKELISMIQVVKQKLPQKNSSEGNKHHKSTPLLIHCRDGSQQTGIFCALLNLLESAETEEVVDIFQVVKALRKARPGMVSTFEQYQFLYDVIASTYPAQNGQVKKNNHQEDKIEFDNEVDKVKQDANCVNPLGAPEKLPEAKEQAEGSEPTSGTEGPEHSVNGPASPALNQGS
More on the design: species or system Escherichia coli.
Conditions: not given
On to `CC[C@H](C)C(=O)O[C@H]1C[C@H](O)C=C2C=C[C@H](C)[C@H](CC[C@@H](O)C[C@@H](O)CC(=O)O)[C@H]21` [PRAVASTATIN], for which the IC50 result is “Not Active”.
On to `CC(C)(Sc1cc(C(C)(C)C)c(O)c(C(C)(C)C)c1)Sc1cc(C(C)(C)C)c(O)c(C(C)(C)C)c1` [PROBUCOL], for which the IC50 result is “Not Active”.
Turning to COBALT(II) ACETYLACETONATE, the IC50 result is recorded as “Not Active” and the Ki result is given as “Not Active”.
With INSULIN HUMAN, the IC50 entry is given as “Not Active” and the Ki result is reported as “Not Active”.
Regarding POLYVINYL ALCOHOL, the IC50 result is “Not Active” and the Ki result is on record as “Not Active”.

In another series the target is T3, C-C chemokine receptor type 4 (Homo sapiens, UniProt P51679). Also: in other assays of this panel Not Active means under 50% inhibition at 10 µM.
T3 sequence (P51679 whole entry): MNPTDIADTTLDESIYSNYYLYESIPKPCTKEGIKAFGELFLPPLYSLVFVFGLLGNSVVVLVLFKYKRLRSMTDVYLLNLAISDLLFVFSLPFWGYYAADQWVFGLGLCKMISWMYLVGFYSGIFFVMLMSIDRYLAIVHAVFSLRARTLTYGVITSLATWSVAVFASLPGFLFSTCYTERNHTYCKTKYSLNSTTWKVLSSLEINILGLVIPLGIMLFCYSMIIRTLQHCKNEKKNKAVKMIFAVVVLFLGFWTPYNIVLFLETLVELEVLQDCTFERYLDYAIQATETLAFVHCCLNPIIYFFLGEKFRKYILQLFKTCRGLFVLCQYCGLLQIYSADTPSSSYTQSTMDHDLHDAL
The series is classed as cell membranes, Membrane. The note with it: chem-1.
With `CC[C@H](C)C(=O)O[C@H]1C[C@H](O)C=C2C=C[C@H](C)[C@H](CC[C@@H](O)C[C@@H](O)CC(=O)O)[C@H]21` [PRAVASTATIN], the IC50 entry is “Not Active”.
Still for that read-out and setting: then `CC(C)(Sc1cc(C(C)(C)C)c(O)c(C(C)(C)C)c1)Sc1cc(C(C)(C)C)c(O)c(C(C)(C)C)c1` [PROBUCOL], with “Not Active”.
For COBALT(II) ACETYLACETONATE, the IC50 result is on record as “Not Active” and the Ki entry was “Not Active”.
For INSULIN HUMAN, the IC50 result is listed as “Not Active” and the Ki entry is given as “Not Active”.
For POLYVINYL ALCOHOL, the IC50 entry is reported as “Not Active” and the Ki entry was “Not Active”.
